Measured values as given in US9820951B2, “Pulmonary disease treatment and diagnosis based on Arhgef1” (NATIONAL JEWISH HEALTH, A NON-PROFIT ORGANIZATION, priority 2011, dated 2017).
Entries after “also recorded” stand apart in the source; their conditions may differ.

Legend:
Mmp9 [1] = experiment: MMP9 activity by gelatin zymography in conditioned media of mouse peritoneal macrophages cultured on fibronectin; assay type: cell-based; conditions: for maximal inhibition of fibronectin-induced MMP9 production/activity: both wild type and Arhgef1-deficient macrophages, aspirin up to 20 mM, L-161,982, PTA2 1.56 or 6.25 μM, L-655,240 28 μM
Method: FIG. 5. TP-induced MMP9 production is only partially dependent on COX activity. A) PEMs were cultured on fibronectin for 24 hours with 5% FCS, washed then treated with different concentration of aspirin or 1.6 μM PTXA2 at for an additional 24 hours without FCS. MMP9 activity was determined by zymography from supernatants of wild type (open) or Arhgef1−/− (filled) macrophages. Activity was normalized to activity generated from cells cultured on fibronectin without treatment. B) MMP9 activity in conditioned media from peripheral blood monocytes cultured as described in panel A. Data represents mean±SE (n=3 independent donors).
FIG. 6. The antioxidant mimetic MnTE-2PyP reduces MMP9 activity in macrophages. PEMs were cultured on fibronectin for 24 hours with 5% FCS, washed then treated with MnTE-2PyP at the indicated concentrations for an additional 24 hours without FCS. MMP9 activity was determined by zymography from supernatants of wild type (open) or Arhgef1−/− (filled) macrophages. Activity was normalized to activity generated from cells cultured on fibronectin without treatment.
FIG. 11. Cyclooxygenase activity but not EP4 receptor signaling is required for MMP9 production by murine macrophages cultured on fibronectin. A, representative MMP9 gelatin zymograms of conditioned media from peritoneal macrophages cultured on either plastic (ctl) or FN and treated with increasing concentrations of aspirin (1.25, 5.0, and 20 mM, respectively). Wild type (+/+) and Arhgef1^−/− (−/−) samples from separate zymograms are shown. Molecular weight standards and respective enzymatic activities of MMP9 and MMP2 are shown. B, quantitation of MMP9 activity as determined by densitometric analysis of zymograms in A. MMP 9 activity is shown in arbitrary units and represents n=6 for both wild type (open bars) and Arhgef1^−/− (black bars) samples. The results are compiled from two independent experiments. The data represent the means±S.E. *, p<0.05 Student's two-tailed t test compared with conditioned media from cells cultured on plastic. #, p<0.05 Student's two-tailed test comparing conditioned media from wild type cells to Arhgef1^−/− cells cultured under identical conditions. $, p<0.05 Student's two-tailed t test compared with conditioned media from cells cultured on fibronectin. C, quantitation of MMP9 activity in conditioned media from macrophages cultured on fibronectin in the presence of the EP4 antagonist L161,982 (10 μM). MMP9 activity was normalized to fibronectin response for each genotype. The results are compiled from two independent experiments with wild type (open bars, n=5) and Arhgef1^−/− (black bars, n=5) samples. The data represent the means±S.E. *, p<0.05 Student's two-tailed t test compared with conditioned media from cells cultured on plastic. #, p<0.05 Student's two-tailed t test compared with conditioned media from cells cultured on fibronectin.
FIG. 12. Thromboxane receptor signaling is necessary for fibronectin-induced MMP9 production by macrophages and is attenuated by Arhgef1. A, representative gelatin zymograms of conditioned media from macrophages cultured on plastic (ctl) or FN and treated with 1.56 or 6.25 μM of the thromboxane receptor antagonist PTA2. Wild type (+/+) and Arhgef1^−/− (−/−) samples from separate zymograms are shown. B, quantitation of MMP9 activity as determined by densitometric analysis of zymograms in A. The results are representative of two independent experiments. C, representative zymograms from conditioned media from macrophages cultured on plastic or fibronectin and treated with 28 μM of the thromboxane receptor antagonist L-655,240. D, quantitation of MMP9 activity as determined by densitometric analysis of zymograms in C. The results are compiled from two independent experiments with n=4 for both wild type (open bars) and Arhgef1^−/− (black bars) samples. […]

MMP2 = MMP2 activity by gelatin zymography in conditioned media of mouse peritoneal macrophages cultured on fibronectin; assay type: cell-based; conditions: wild type and Arhgef1−/− macrophages; 20 mM aspirin or 28 μM L-655,240
Method: FIG. 12. Thromboxane receptor signaling is necessary for fibronectin-induced MMP9 production by macrophages and is attenuated by Arhgef1. A, representative gelatin zymograms of conditioned media from macrophages cultured on plastic (ctl) or FN and treated with 1.56 or 6.25 μM of the thromboxane receptor antagonist PTA2. Wild type (+/+) and Arhgef1^−/− (−/−) samples from separate zymograms are shown. B, quantitation of MMP9 activity as determined by densitometric analysis of zymograms in A. The results are representative of two independent experiments. C, representative zymograms from conditioned media from macrophages cultured on plastic or fibronectin and treated with 28 μM of the thromboxane receptor antagonist L-655,240. D, quantitation of MMP9 activity as determined by densitometric analysis of zymograms in C. The results are compiled from two independent experiments with n=4 for both wild type (open bars) and Arhgef1^−/− (black bars) samples. […] E, MMP2 activity was quantitated in conditioned media as previously described for MMP9. […] The data represent the means±S.E. F, MMP9 activity was quantitated as previously described and normalized to a percentage of fibronectin response for each genotype. […] G, relative Mmp9 expression was measured by qPCR in macrophages cultured on fibronectin in the presence of the thromboxane receptor agonist (U-46619, 10 nM), S1P (40 nM), or LPA (10 μM). […]

Mmp9 [2] = experiment: Mmp9 expression by qPCR in mouse peritoneal macrophages cultured on fibronectin; assay type: cell-based
Method: (§1) FIG. 4. TP signaling is required for MMP9 production in vitro and in vivo. A) Macrophage Mmp9 expression after culture on fibronectin for 24 hrs in media/vehicle (−), 40 nM S1P, 10 μM LPA, 10 nM U-46619 (TP agonist) or 6 μM PTXA2 (TP antagonist). Data represent normalized mean±SE. B) Arhgef1−/− mice (n=16) were exposed to aerosolized PBS (n=16), 220 μM PTXA2 (n=6) or 190 μM U-46619 (n=10) for 20 minutes and BAL harvested 1 day later and MMP activity measured.
FIG. 12. Thromboxane receptor signaling is necessary for fibronectin-induced MMP9 production by macrophages and is attenuated by Arhgef1. A, representative gelatin zymograms of conditioned media from macrophages cultured on plastic (ctl) or FN and treated with 1.56 or 6.25 μM of the thromboxane receptor antagonist PTA2. Wild type (+/+) and Arhgef1^−/− (−/−) samples from separate zymograms are shown. B, quantitation of MMP9 activity as determined by densitometric analysis of zymograms in A. The results are representative of two independent experiments. C, representative zymograms from conditioned media from macrophages cultured on plastic or fibronectin and treated with 28 μM of the thromboxane receptor antagonist L-655,240. D, quantitation of MMP9 activity as determined by densitometric analysis of zymograms in C. The results are compiled from two independent experiments with n=4 for both wild type (open bars) and Arhgef1^−/− (black bars) samples. The data represent the means±S.E. *, p<0.05 Student's two-tailed t test compared with conditioned media from cells cultured on plastic. #, p<0.05 Student's two-tailed t test comparing conditioned media from wild type cells to Arhgef1^−/− cells cultured under identical conditions. $, p<0.05 Student's two-tailed t test compared with conditioned media from cells cultured on fibronectin. E, MMP2 activity was quantitated in conditioned media as previously described for MMP9. The results are compiled from four independent experiments with n=10 for wild type (open bars) and Arhgef1^−/− (black bars) samples cultured on either plastic or fibronectin. For cells treated with 20 mM aspirin, n=6 for wild type (open bars) and Arhgef1^−/− (black bars) samples. For cells treated with 28 μM L-655,240, n=4 for wild type (open bars) and Arhgef1^−/− (black bars) samples. The data represent the means±S.E. F, MMP9 activity was quantitated as previously described and normalized to a percentage of fibronectin response for each genotype. The cells were either untreated or treated with 0.5% Me2SO or 28 μM L-655,240. The results are compiled from two independent experiments with n=3 for all conditions and genotypes. The data represent the means±S.E. *, p<0.05 Student's two-tailed t test compared with conditioned media from cells cultured on fibronectin. G, relative Mmp9 expression was measured by qPCR in macrophages cultured on fibronectin in the presence of the thromboxane receptor agonist (U-46619, 10 nM), S1P (40 nM), or LPA (10 μM). […] Wild type (open bars, n=12, 6, 3, and 3 for fibronectin, +U-46619, +S1P, and +LPA, respectively) and Arhgef1^−/− (black bars, n=14, 6, 3, and 2, respectively) from at least two independent experiments. The data represent the means±S.E. *, p<0.05 Student's two-tailed t test compared with conditioned media from cells cultured on fibronectin, #, p<0.05 Student's two-tailed t test comparing conditioned media from wild type cells to Arhgef1^−/− cells cultured under identical conditions. […]

Mmp9 [3] = experiment: MMP9 activity in BAL of Arhgef1−/− mice after aerosol exposure; assay type: in vivo, mouse; conditions: inhalation of aerosol 20 min (220 μM PTXA2, 190 μM U-46619), BAL 24 hours later
Method: as §1

MMP9 [4] = experiment: MMP9 activity by gelatin zymography, peripheral blood monocytes from COPD patients on fibronectin; assay type: cell-based, human; conditions: monocytes from 3 COPD patients; dose response 0.4 μM to 260 μM
Method: FIG. 17. Seratrodast (AA-2414) treatment on peripheral blood monocytes from 3 COPD patients. Generated dose response curve going firm 0.4 μM to 260 μM. Measured response by gelatin zymography of conditioned media. A is a representative zymogram from a single individual COPD patient. B depicts results compiled from three COPD patients. *, p<0.05 for ctl vs FN; #, p<0.05 FN vs FN+seratrodast.
For other human studies, we quantitated MMP9 by ELISA in conditioned medium (ELISA TECH, Aurora, Colo.).
Novex (Invitrogen) zymogram 10% gelatin gels were used for zymography as indicated per the manufacturer's instructions on conditioned media. Protease activity was detected as a loss of gelatin at the molecular weight of the indicated MMP and quantified by densitometric analysis using ImageJ (National Institutes of Health) software.
As another example, the thromboxane receptor antagonist seratrodast (AA-2414) was used on peripheral blood monocytes from 3 COPD patients and data collected as shown in FIG. 17.

[5] = wild type and Arhgef1-deficient macrophages on fibronectin, 40 nM S1P, 10 μM LPA, 6 μM PTXA2, 24 h

Question: For `CCCCc1nn(-c2ccccc2C(F)(F)F)c(=O)n1Cc1ccc(-c2ccccc2S(=O)(=O)NC(=O)c2sccc2C)cc1` [L-161,982], which “maximal inhibition of fibronectin-induced MMP9 production/activity” value (Mmp9 [1]) is on record?
Answer: −40%

Question: `Cc1c(CC(C)(C)C(=O)O)n(Cc2ccc(Cl)cc2)c2ccc(F)cc12` [L-655,240, 1-[(4-Chlorophenyl)methyl]-5-fluoro-α,α,3-trimethyl-1H-indole-2-propanoic acid] was tested. Which “maximal inhibition of fibronectin-induced MMP9 production/activity” value (Mmp9 [1]) did it give?
Answer: −90%

Question: And the “fibronectin-mediated MMP9 activity (effect in words)” value (Mmp9 [1]; mouse macrophages, wild type and Arhgef1−/−, 1.6 μM PTXA2, 28 μM L-655,240)?
Answer: significantly reduced MMP9 activity

Question: What about the MMP2 activity (MMP2) of the same compound?
Answer: not affected

Question: For `CCCCCCCCCCCCC/C=C/[C@@H](O)[C@@H](N)COP(=O)(O)O` [S1P, sphingosine-1-phosphate], which Mmp9 expression (Mmp9 [2]; [5]) is on record?
Answer: slight decrease in Mmp9 expression; also recorded: modestly depress Mmp9 expression

Question: What does the source list for `CCCCC[C@H](O)/C=C/[C@@H]1[C@@H](C/C=C\CCCC(=O)O)[C@H]2CO[C@@H]1C2` [U-46619]?
Answer: Mmp9 expression (Mmp9 [2]; Arhgef1-deficient macrophages on fibronectin, 10 nM U-46619): expressed significantly more Mmp9; also recorded: considerably increased Mmp9 expression; Mmp9 expression (Mmp9 [2]; wild type macrophages on fibronectin, 10 nM U-46619): did not affect wild type cells; MMP9 activity in BAL (Mmp9 [3]): dramatically increased MMP9 activity

Question: How did the “MMP9 activity versus dose” value (MMP9 [4]) turn out when `CC1=C(C)C(=O)C(C(CCCCCC(=O)O)c2ccccc2)=C(C)C1=O` (stereo not shown) [seratrodast, 7-phenyl-7-(2,4,5-trimethyl-3,6-dioxocyclohexa-1,4-dien-1-yl)heptanoic acid] was run?
Answer: inverse relationship between MMP9 activity and seratrodast dose

Question: How did the Mmp9 expression (Mmp9 [2]; [5]) turn out when lysophosphatidic acid [LPA] was run?
Answer: slight decrease in Mmp9 expression; also recorded: modestly depress Mmp9 expression
